# Experimental data from publication PMC3474771, “Evaluation of 14 Organic Solvents and Carriers for Screening Applications in Zebrafish Embryos and Larvae” (PLoS ONE, 2012).
# Read-outs that look alike come from different tables or passages of the source.
# Experiments:
# zebrafish = tested on: zebrafish; set-up: method as in PMID 18646521; conditions: 0.01% acetone; cited from earlier work
# [1] = tested on: zebrafish embryos and larvae; conditions: for Maximum-tolerated concentration (MTC): highest concentration with no phenotypic abnormalities, followed to 9 dpf; for Phenotypic effects above MTC after 24 hours (average penetrance at least 50%): at the concentration in parentheses
# Method: Zebrafish embryos of the AB wild-type strain (originally obtained from the Zebrafish International Resource Center, Eugene, Oregon, USA) were raised at 28°C. Zebrafish husbandry, embryo collection, and embryo and larva maintenance were performed as described, [21]. Toxicity assays were standardly performed in 24-well microtiter plates (wrapped with Parafilm to limit solvent evaporation) using 10 embryos per well in 1 ml of 0.3× Danieau's medium (17 mM NaCl, 2 mM KCl, 0.12 mM MgSO4, 1.8 mM Ca(NO3)2 and 1.5 mM HEPES, pH 7.6). Each experiment was repeated 3 times for a total of 30 embryos or larvae analyzed per solvent per developmental staged tested. Data were only recorded for experiments in which the percentage of normal embryos or larvae in the control group was at least 90%. […] In determining the maximum tolerated concentration (MTC) for each solvent and carrier, all post-exposure embryos and larvae were allowed to develop in larva medium to 9 dpf, so as to detect any deleterious effects appearing after this 24-hour window. Solvents and carriers were obtained from the following suppliers: acetone (Chemlab, Zedelgem, Belgium), acetonitrile (Acros Organics, Geel, Belgium), albumin (BSA, Sigma-Aldrich, Bornem, Belgium), butanone (Riedel-de Haën, Seelze, Germany), cyclodextrin (2- hydroxypropyl-beta-cyclodextrin, Sigma-Aldrich), dimethyl formamide (Acros), DMSO (Agros), ethanol (Fisher Scientific, Doornik, Belgium), glycerol (Acros), isopropanol (Chemlab), methanol (Chemlab), polyethylene glycol-400 (Fluka, Bornem, Belgium), propylene glycol (Certa, Eigenbrakel, Belgium), solketal (Merck, Overijse, Belgium). Statistical analyses were done using chi-square in Microsoft Excel.
# Twelve solvents and 2 carriers – chosen based solely on their potential utility for the solubilization and delivery of a structurally diverse range of small molecules – were analyzed for their effects on zebrafish embryos and larvae. The solvents included acetone, acetonitrile, butanone, dimethyl formamide, DMSO, ethanol, glycerol, isopropanol, methanol, polyethylene glycol (PEG-400), propylene glycol, and solketal, and the carriers included albumin (BSA) and cyclodextrin (2-hydroxypropyl-beta-cyclodextrin, or HPBCD). […] For this initial study, the effects of a 24-hour exposure to each solvent and carrier was analyzed using embryos and larvae at the following developmental stages: 2–4 cell, 4 hours-post fertilization (hpf), and 1, 2, 3, 4, and 7 days post-fertilization (dpf).
# rat embryos = conditions: cited from earlier work
# zebrafish embryos = tested on: zebrafish embryos; set-up: method as in PMID 16125774; conditions: 2% DMSO; cited from earlier work
# early embryos = tested on: early embryos; set-up: method as in PMID 18031801; conditions: solutions containing between 5 and 10% of this solvent; cited from earlier work
# [2] = exposure for 24 hours beginning at 1 dpf
# [3] = exposure for 24 hours beginning at 2 dpf
# [4] = exposure for 24 hours beginning at 2–4 cell stage
# [5] = exposure for 24 hours beginning at 3 dpf
# [6] = exposure for 24 hours beginning at 4 dpf
# [7] = exposure for 24 hours beginning at 4 hpf
# [8] = exposure for 24 hours beginning at 5 dpf
# [9] = exposure for 24 hours beginning at 7 dpf
Compound,Lowest concentration at which an average penetrance of at least 50% was observed for the phenotypic effects ([1]; 24 hours exposure from 7 dpf) [%],"Maximum-tolerated concentration (MTC) [1, 2] [%]","Maximum-tolerated concentration (MTC) [1, 3] [%]","Maximum-tolerated concentration (MTC) [1, 4] [%]","Maximum-tolerated concentration (MTC) [1, 5] [%]","Maximum-tolerated concentration (MTC) [1, 6] [%]","Maximum-tolerated concentration (MTC) [1, 7] [%]","Maximum-tolerated concentration (MTC) [1, 8] [%]","Maximum-tolerated concentration (MTC) [1, 9] [%]",Lowest concentration at which an average penetrance of at least 50% was observed for the phenotypic effects ([1]; 24 hours exposure from 1 dpf) [%],Lowest concentration at which an average penetrance of at least 50% was observed for the phenotypic effects ([1]; 24 hours exposure from 2 dpf) [%],Lowest concentration at which an average penetrance of at least 50% was observed for the phenotypic effects ([1]; 24 hours exposure from 3 dpf) [%],Lowest concentration at which an average penetrance of at least 50% was observed for the phenotypic effects ([1]; 24 hours exposure from 4 dpf) [%],Lowest concentration at which an average penetrance of at least 50% was observed for the phenotypic effects ([1]; 24 hours exposure from 4 hpf) [%],Lowest concentration at which an average penetrance of at least 50% was observed for the phenotypic effects ([1]; 24 hours exposure from 5 dpf) [%],Phenotypic effects above MTC after 24 hours (average penetrance at least 50%) ([1]; exposure from 1 dpf),Phenotypic effects above MTC after 24 hours (average penetrance at least 50%) ([1]; exposure from 3 dpf),Phenotypic effects above MTC after 24 hours (average penetrance at least 50%) ([1]; exposure from 4 dpf),Phenotypic effects above MTC after 24 hours (average penetrance at least 50%) ([1]; exposure from 5 dpf),Phenotypic effects above MTC after 24 hours (average penetrance at least 50%) ([1]; exposure from 7 dpf),also measured
"CC(C)=O [Acetone, acetone]",0.5,1.5,1.5,2,≥2.5,1.5,2,<0.5,<0.5,,,,,,,,,,,,"Toxicity of negative controls with solvent (zebrafish): no signs of toxicity; Maximum-tolerated concentration (MTC) ([1]; exposure for 24 hours beginning at 3 dpf, listed as acetone): ≥ 2.5%"
"CC#N [Acetonitrile, acetonitrile]",0.5,1,,<0.5,1,,,,,2.5,1.5,1.5,1.5,1.5,1,DD PE,PE SB,IC PE,IC PE,IC PE,"Minimum embryotoxic concentration (rat embryos): 40 mM; Effect on cleavage-stage embryos ([1]; 0.5% (lowest concentration examined), after 24 hours of exposure): completely lethal; Phenotypic effects above MTC after 24 hours (average penetrance at least 50%) ([1]; exposure from 4 hpf): AP IC IP NO SO"
"C[S+](C)[O-] [Dimethyl sulfoxide (DMSO), Dimethyl sulfoxide]",2,2,2,>2.5,1.5,2,>2.5,2,1.5,,,2.5,,,2.5,,NB SB,,GG IC IM LP,NB LP,"Adverse effects at maximum concentration tested (zebrafish embryos): no adverse effects; MTC / tolerated concentration as summarised in the text for a subset of stages ([1]; BSA: intermediate stages, DMSO: embryos, glycerol: younger larvae and embryos): at least 2.5%; Levels at which abnormalities or lethality begin in at least a subset of treated animals ([1]; larvae): 2–2.5%"
CC(O)CO (stereo not drawn) [Propylene glycol],,>2.5,>2.5,>2.5,2,1.5,>2.5,>2.5,1.5,,,,,,,,,,,,"Toxicity of brief exposures to cryoprotectant solutions (early embryos): toxic; MTC / tolerated concentration ([1]; over all or most developmental stages analyzed, 24-hour exposure): at least 2.5%"
CC1(C)OCC(CO)O1 (stereo not drawn) [Solketal],0.5,0.5,0.5,<0.5,0.5,<0.5,0.5,<0.5,<0.5,1,1,1,0.5,1,0.5,AP BH IC IM NB PE,AH IC IM HJ PE,BC LP,NB LP SB+,NB LP,"Maximum-tolerated concentration (MTC) ([1]; exposure for 24 hours beginning at 2–4 cell stage, listed as solketal): < 0.5%; Phenotypic effects above MTC after 24 hours (average penetrance at least 50%) ([1]; exposure from 2 dpf): AP BH IC PE"
"Albumin (BSA): bovine serum albumin (BSA), carrier",,<0.5,0.5,<0.5,0.5,,<0.5,≥2.5,≥2.5,,,1.5,1.5,0.5,,,,IC PE,,,"Delay in development relative to control ([1]; 0.5% from 4-cell stage, embryos at 1 dpf, morphologically normal): up to 9 hours; Lowest concentration at which an average penetrance of at least 50% was observed for the phenotypic effects ([1]; 24 hours exposure from 2–4 cell stage): 0.5%; Maximum-tolerated concentration (MTC) ([1]; exposure for 24 hours beginning at 5 dpf, listed as BSA): ≥ 2.5%; Maximum-tolerated concentration (MTC) ([1]; exposure for 24 hours beginning at 7 dpf, listed as BSA): ≥ 2.5%"
